From patent US7951548B2, “IL-13 production inhibitor” (Takeda Pharmaceutical Company Limited, priority 2005, dated 2011)

Tests used:
Format in all cases: cell-based
GPR34 [1] = target: T1, GPR34 (Homo sapiens, UniProt Q9UPC5); assay: DNA synthesis activity (tritium-labeled thymidine) of human GPR34-expressed CHO cells; settings: serum-free medium, 16 hours
T1 construct: expressed in transfected cells
Method: The human GPR34-expressed CHO cells prepared by the procedure as described in REFERENCE EXAMPLE 1 were plated at a cell density of 20,000 cells/well on a 96-well plate charged with serum-free medium. The cells were allowed to stand for 4 hours, 0, 0.1, 0.3, 1 and 3 μM lysoPS was added thereto, respectively, followed by incubation for 16 hours. After 1 μCi/well of tritium-labeled thymidine (Amersham, TRK120) was added to achieve labeling for 4 hours, fixation was performed in 10% trichloroacetic acid. Solubilization in an aqueous sodium hydroxide solution was followed by neutralization in trichloroacetic acid to collect DNA with a cell harvester. The radioactivity on the filter was taken as DNA synthesis activity.

[2] = tested on: human mast cell line LAD2 cells; assay: Leukotriene production of human mast cell line LAD2 cells (Leukotriene EIA)
Method: The human mast cell line LAD2 cells obtained from National Institute of Health in US were subjected to passive sensitization overnight using DNP IgE (Yamasa, 1 μg/ml), washed and plated on a 96-well plate in a final cell concentration of 100,000 cells/well in the reaction solution. LAD2 cells were stimulated by lysoPS and DNP-BSA and the plate was centrifuged 20 minutes after. The leukotriene in the supernatant of the reaction solution was assayed using Leukotriene EIA Kit (Amersham).

[3] = tested on: mouse bone marrow-derived mast cells; assay: MAPK activation: phosphorylation of ERK1/2 in mouse bone marrow-derived mast cells (BMMC); settings: BMMC
Method: BMMC was established by collecting bone marrow fluid from the femur of male BALB/c mouse (Japan SLC), rinsing in RPMI1640 (Nikken Bio Medical Laboratory) and then incubating in a medium (RPMI1640, 50% WEHI-3 culture supernatant, 10% FBS (GIBCO), penicillin/streptomycin (BIOWHITTAKER), Non-Essential amino acids (GIBCO)) for 4 weeks. The cells were incubated in a CO2 incubator immediately before assay. Pertussis toxin (hereinafter PTX) was added to the cells in a final concentration of 0.1 μg/mL 4 hours before assay. BMMC was washed in ice-chilled assay buffer (Tyrode Buffer, 0.01% fatty acid free-BSA (SIGMA), 1 mM CaCl2, 1 mM MgCl2), and suspended in 2×10^6 cells/ml. The suspension was dispensed in a 1.5 mL tube followed by preincubation for 15 minutes at 37° C. The lysoPS solution and A23187 solution (Wako Pure Chemicals) as a positive control were added in equimolar amounts. After incubation at 37° C., the reaction was terminated by quenching. The cells were precipitated by centrifugation and the assay buffer was aspirated. After washing in PBS, 1×SDS sample buffer/DTT was added to the cells to lyse the cells. After ultrasonication for 15 seconds, the sample was heated at 95° C. for 5 minutes followed by quenching.
Detection by SDS-PAGE and western blotting were performed as follows. After separation using 10% Bis-Tris gel (Invitrogen), the gel was transferred to Immuno-Blot PVDF Membrane (BIO-RAD). The membrane was blocked with Block Ace (Dai-Nippon Pharmaceutical) and incubated at 4° C. overnight with a primary antibody (Phospho-p42/p44 MAP Kinase (Thr202/Thr204) Antibody (CST) or p42/p44 MAP Kinase Antibody (CST)) and further incubated at room temperature for an hour using a secondary antibody (Anti-rabbit IgG (CST)). The membrane after the antibody reaction was visualized by chemiluminescence using ECL PLUS (Amersham Biosciences). Detection and image analysis were performed using LAS1000 (FUJI FILM).

GPR34 [4] = target: T1, GPR34; assay: Intracellular cAMP production inhibitory activity on GPR34-expressed CHO cells (forskolin stimulated); settings: phosphatidylserine in a higher concentration
Method: The GPR34-expressed CHO cells prepared in (1-2) described above and selected in (1-3) described above were plated on a 24-well plate in 6×10^4 cells/well followed by incubation for 48 hours. The cells were washed with αMEM medium (pH 7.5) containing 0.2 mM 3-isobutylmethylxanthine, 0.05% BSA and 20 mM HEPES (hereinafter αMEM medium (pH 7.5) containing 0.2 mM 3-isobutylmethylxanthine, 0.05% BSA and 20 mM HEPES is referred to as the reaction buffer). Thereafter, 0.5 mL of the reaction buffer was added and the mixture was kept warm for 30 minutes in an incubator. The reaction buffer was removed and 0.25 mL of fresh reaction buffer was replenished to the cells. Then, 0.25 mL of the reaction buffer containing a sample and 2 μM forskolin was added to the cells, followed by reacting at 37° C. for 30 minutes. The reaction solution was removed and 0.5 mL of the cell lysis solution attached to cAMP EIA kit (Applied Biosystems) to extract cAMP in the cells. The cAMP level in the extract was quantified using the same kit. Based on this measurement data, the cAMP production inhibitory activity was calculated based on the equation shown below and expressed in terms of percentage to the control group. […]

[5] = tested on: other receptor expression cells; assay: cAMP production inhibitory activity on other receptor expression cells

T1 sequence (Q9UPC5 whole entry): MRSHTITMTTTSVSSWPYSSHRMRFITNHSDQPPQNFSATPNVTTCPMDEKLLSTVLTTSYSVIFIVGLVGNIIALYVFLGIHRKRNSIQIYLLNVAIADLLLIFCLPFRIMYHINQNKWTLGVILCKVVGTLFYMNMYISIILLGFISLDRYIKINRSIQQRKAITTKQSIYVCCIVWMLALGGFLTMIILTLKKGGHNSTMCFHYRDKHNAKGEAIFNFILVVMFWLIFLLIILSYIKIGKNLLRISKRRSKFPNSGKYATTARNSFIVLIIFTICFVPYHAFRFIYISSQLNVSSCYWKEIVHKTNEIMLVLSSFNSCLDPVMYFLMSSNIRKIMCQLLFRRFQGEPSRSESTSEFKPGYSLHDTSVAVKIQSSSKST

Substance: lysophosphatidylserine [lysoPS]
- DNA synthesis activity, increase (GPR34 [1]; 0.1 μM lysoPS): 1.1 times
- DNA synthesis activity, increase (GPR34 [1]; 0.3 μM lysoPS): 1.2 times
- DNA synthesis activity, increase (GPR34 [1]; 1 μM lysoPS): 2.0 times
- DNA synthesis activity, increase (GPR34 [1]; 3 μM lysoPS): 3.2 times
- leukotriene production ([2]; 300 ng/ml DNP-BSA with 0.1 μM lysoPS added simultaneously): 382 pg/mL
- leukotriene production ([2]; 300 ng/ml DNP-BSA with 0.3 μM lysoPS added simultaneously): 529 pg/mL
- leukotriene production ([2]; 300 ng/ml DNP-BSA with 1 μM lysoPS added simultaneously): 638 pg/mL
- leukotriene production ([2]; 300 ng/ml DNP-BSA with 3 μM lysoPS added simultaneously): 750 pg/mL
- leukotriene production ([2]; 300 ng/ml DNP-BSA with 10 μM lysoPS added simultaneously): 792 pg/mL
- phosphorylation of ERK1/2 30 minutes after the stimulation [3]: the phosphorylation was observed
- time of maximum response of ERK1/2 phosphorylation after the stimulation [3]: about 2 minutes
- cAMP production inhibitory activity (GPR34 [4]): marked activities
- cAMP production inhibitory action on other receptor expression cells [5]: not noted
